In series [1] the test system is Candida albicans. The series can be described thus: Antibiofilm activity against Candida albicans SC5314 after 24 hrs in presence of miconazole by Cell-Titer Blue assay. It is filed as functional.
The subject of series [2] is Candida albicans. Description: Antibiofilm activity against Candida albicans SC5314 clinical isolates after 24 hrs by XTT assay. Format: functional. A general note: Formazan colour is commonly taken as a measure of viable cells.
In series [3] the test system is Candida albicans. Description: Antibiofilm activity against Candida albicans SC5314 after 24 hrs by Cell-Titer Blue assay. Format: functional.
Series [4] deals with Candida albicans. The series can be described thus: Antibiofilm activity against Candida albicans CAF2-1 after 48 hrs by Alamar blue assay. The conditions noted are these: CAF2-1, 48 h. It is filed as functional. In general terms: The colour change of resazurin is a common sign of viable cells or microbes.
The subject of series [5] is Candida albicans. The series can be described thus: Antibiofilm activity against Candida albicans SC5314 after 48 hrs by Alamar blue assay. Format: functional. The conditions noted are these: SC5314, 48 h.
Series [6] has as its system Candida albicans. Description: Antibiofilm activity against fluconazole-resistant Candida albicans 29E clinical isolates after 48 hrs by Alamar blue assay. It is filed as functional.
The subject of series [7] is Candida albicans. Description: Antibiofilm activity against Candida albicans CAIF-100 after 24 hrs by Cell-Titer Blue assay. Format: functional.
Series [8] has as its system Candida albicans. The series can be described thus: Antifungal activity against fluconazole-resistant Candida albicans by broth microdilution assay. It is filed as functional. A general note: Broth dilution looks for growth in wells or tubes with falling amounts of substance.
The subject of series [9] is Candida albicans. Description: Antifungal activity against fluconazole-susceptible Candida albicans by broth microdilution assay. It is filed as functional.
For series [10], the system named is Candida albicans. Description: Antifungal activity against Candida albicans KCTC 1940 clinical isolates after 7 days by two fold serial dilution method. Format: functional. The conditions noted are these: KCTC 1940, 168 h.
Another series concerns Cryptococcus neoformans. Description: Antifungal activity against Cryptococcus neoformans KCTC 7224 clinical isolates after 7 days by two fold serial dilution method. It is filed as functional. The following applies: KCTC 7224, 168 h.
Series [11] concerns Trichophyton mentagrophytes. The series can be described thus: Antifungal activity against Trichophyton mentagrophytes KCTC 6077 clinical isolates after 7 days by two fold serial dilution method. The conditions noted are these: KCTC 6077, 168 h. It is filed as functional.
The test system of series [12] is Candida albicans. Description: Antifungal activity against Candida albicans by broth dilution assay. It is filed as functional.
Series [13] is described as follows: Cytotoxicity against human HepG2 assessed as reduction in cell viability after 24 hrs by CellTiter-Glo luminescent assay. It is filed as cell-based. The conditions noted are these: HepG2 cells.
The test system of series [14] is Candida albicans. The series can be described thus: Inhibition of filament formation of tet-NRG1 expressing Candida albicans after 2 to 24 hrs. Format: functional.

As usually defined, the IC50 is the concentration that inhibits the measured activity by half. Low readings indicate inhibition by little substance, high ones a need for much substance. By MIC80 is commonly meant the lowest concentration that inhibits either 80% of growth or 80% of the strains tested, depending on the study. Higher therefore signals weaker potency. In general, MIC refers to the lowest concentration that inhibits growth of the organism. One may read the CC50 as the concentration that lowers cell viability or growth by half.

In brackets after ≈: the same amount, converted by molar mass.

`C[C@H]1[C@@H](O)O[C@@H]2O[C@@]3(C)CC[C@H]4[C@H](C)CC[C@@H]1[C@@]24OO3` [ARTENIMOL]: the “fractional inhibitory concentration index (FICI)” value in the series on Candida albicans [1] is recorded as 0.145.

Regarding `C[C@H]1[C@H](OC(=O)CCC(=O)O)O[C@@H]2O[C@@]3(C)CC[C@H]4[C@H](C)CC[C@@H]1[C@@]24OO3` [ARTESUNATE], the “fractional inhibitory concentration index (FICI)” value with Candida albicans [1] is recorded as less than 0.069.

In the case of `CCc1oc2ccccc2c1C(=O)c1cc(Br)c(O)c(Br)c1` [BENZBROMARONE], half-maximal inhibition with Candida albicans [2] (Candida albicans, SC5314, 24 h) (IC50) was put at 2 µM.

Consider `Oc1c(Br)cc(Br)c2cccnc12` [BROXYQUINOLINE], for which the MBEC2 in the series with Candida albicans [3] is 1.2 µM.

Compound `N=C(NCCCCCCNC(=N)NC(=N)Nc1ccc(Cl)cc1)NC(=N)Nc1ccc(Cl)cc1` [CHLORHEXIDINE] yielded an IC50 in the series with Candida albicans [2] (Candida albicans, SC5314, 24 h) of 21.8 µM.

For `Oc1c(Cl)cc(Cl)c2cccnc12` [CHLOROXINE], the IC50 in the series with Candida albicans [4] is 1.2 to 13.2 µM; in the series on Candida albicans [5] it was 1.2 to 13.2 µM; in the series with Candida albicans [6], 1.2 to 13.2 µM; in the series with Candida albicans [2] (Candida albicans, SC5314, 24 h) it was 2.7 µM.

In turn, `CN(C)CC/C=C1/c2ccccc2Sc2ccc(Cl)cc21.Cl` [CHLORPROTHIXENE HYDROCHLORIDE] yielded an MBIC50 in the series with Candida albicans [7] of 17 µM.

Turning to `Oc1c(I)cc(Cl)c2cccnc12` [CLIOQUINOL], in the series with Candida albicans [2] (Candida albicans, SC5314, 24 h), 2.6 µM corresponded to half-maximal inhibition (IC50).

`C#CCN(C)CCCOc1ccc(Cl)cc1Cl.Cl` [CLORGYLINE HYDROCHLORIDE] gave an MBIC50 with Candida albicans [7] of 24 µM.

`O=C1c2cccc(O)c2C(=O)c2c(O)cccc21` [DANTHRON] yielded an MBIC50 in the series with Candida albicans [7] of 12 µM.

In the series on Candida albicans [7], `CCN(CC)CCOC(=O)C1(C2CCCCC2)CCCCC1.Cl` [DICYCLOMINE HYDROCHLORIDE] came in with an MBIC50 of 60 µM.

For `COc1ccc2cc1Oc1ccc(cc1)C[C@H]1c3cc(c(OC)cc3CCN1C)Oc1c(OC)c(OC)cc3c1[C@H](C2)N(C)CC3` [FANCHININ], the MIC80 in the series with Candida albicans [8] and in the series on Candida albicans [9] was 64 mg/L (≈ 103 µM) each time.

Turning to `CN(C)c1ccc(C(=C2C=CC(=[N+](C)C)C=C2)c2ccc(N(C)C)cc2)cc1.[Cl-]` [GENTIAN VIOLET], in the series with Candida albicans [3], the MBEC2 was 1.5 µM.

Turning to `Oc1c(Cl)cc(Cl)c(Cl)c1Cc1c(O)c(Cl)cc(Cl)c1Cl` [HEXACHLOROPHENE], in the series with Candida albicans [3], the MBEC2 came out at 9.3 µM. The IC50 in the series on Candida albicans [2] (Candida albicans, SC5314, 24 h) turned out to be 5.1 µM.

Consider `C=CCc1ccc(O)c(-c2ccc(O)c(CC=C)c2)c1` [HONOKIOL], for which the MIC with Candida albicans [10] is 16 to 32 mg/L (≈ 60.1 to 120 µM); against Cryptococcus neoformans, 25 mg/L (≈ 93.9 µM); in series [11], 25 mg/L (≈ 93.9 µM).

In the case of `C=CCc1ccc(O)c(-c2cc(CC=C)ccc2O)c1` [MAGNOLOL], the MIC against Candida albicans [10] was 16 to 32 mg/L (≈ 60.1 to 120 µM); in the series with Cryptococcus neoformans, 25 mg/L (≈ 93.9 µM); in [11] it was 25 mg/L (≈ 93.9 µM).

As for `O=[N+]([O-])c1ccc(O)c2ncccc12` [NITROXOLINE], the IC50 in the series with Candida albicans [4], in the series on Candida albicans [5] and with Candida albicans [6] was 1 to 5.8 µM in each case. This compound also displayed an MBEC2 with Candida albicans [3] of 3.1 µM.

`C1CCC(C(CC2CCCCN2)C2CCCCC2)CC1.O=C(O)/C=C\C(=O)O` (stereo not drawn) [PERHEXILINE MALEATE]: the MBIC50 in the series with Candida albicans [7] came out at 39 µM.

As to `COc1cc(/C=C/c2ccc(O)cc2)cc(OC)c1` [PTEROSTILBENE], in the series with Candida albicans [12], the MIC80 was 32 mg/L (≈ 125 µM).

As to `Cc1cc(/C=C/c2ccc3cc(N(C)C)ccc3[n+]2C)c(C)n1-c1ccccc1.Cc1cc(/C=C/c2ccc3cc(N(C)C)ccc3[n+]2C)c(C)n1-c1ccccc1.O=C([O-])c1cc2ccccc2c(Cc2c(O)c(C(=O)[O-])cc3ccccc23)c1O` [PYRVINIUM PAMOATE], the MBEC2 with Candida albicans [3] worked out at 3.9 µM. The compound also gave an IC50 with Candida albicans [2] (Candida albicans, SC5314, 24 h) of 6.7 µM.

For `CO[C@H]1C[C@@H]2CC[C@@H](C)[C@@](O)(O2)C(=O)C(=O)N2CCCC[C@H]2C(=O)O[C@H]([C@H](C)C[C@@H]2CC[C@@H](O)[C@H](OC)C2)CC(=O)[C@H](C)/C=C(\C)[C@@H](O)[C@@H](OC)C(=O)[C@H](C)C[C@H](C)/C=C/C=C/C=C/1C` [SIROLIMUS], the CC50 at 24 h in series [13] was determined as 67.2 µM. In the series with Candida albicans [14], this compound registered an IC50 of 0.514 µM.

`CCCCCCCCCCCCCCCC[N+](C)(C)CCN(Cc1ccc(OC)cc1)c1ncccn1` [THONZONIUM BROMIDE] gave an IC50 with Candida albicans [2] (Candida albicans, SC5314, 24 h) of 13 µM.

Compound `CN(C)CCOc1ccc(/C(=C(/CCCl)c2ccccc2)c2ccccc2)cc1.O=C(O)CC(O)(CC(=O)O)C(=O)O` [TOREMIFENE CITRATE] registered an MBIC50 in the series on Candida albicans [7] of 19.5 µM.

THIMEROSAL: the IC50 in the series with Candida albicans [2] is 0.2 µM.

The values above are taken from ChEMBL document CHEMBL4007391, “Tackling Fungal Resistance by Biofilm Inhibitors” (J Med Chem, 2017).
